In US11433038B2, “High concentration medicant solutions for treating neurological disorders” (Cerebral Therapeutics, Inc., priority 2017, dated 2022):
“Also recorded” adds a separate entry of the source. Where a name gives a salt, the structure may show the parent alone.

Key:
human subjects = experiment: subject-reported effects during direct brain (CSF) administration of valproate; format: in vivo
[1] = reported solubility limit; cited from earlier work
[2] = valproate concentration in blood serum and cerebrospinal fluid after administration was stopped (FIG. 1-3); format: in vivo; details: human subjects, FIG. 2
Experimental: The subjects have been administered different dosage levels of valproate using different concentrations of valproate in solution. […] The subjects have been administered different dosage levels of valproate using different concentrations of valproate in solution. […] The subject has been administered 60 mg/day total of valproate using a pump which provides direct regional administration of valproate to the subject's brain using a 100 mg/mL solution.

[3] = pH of aqueous sodium valproate solutions; format: physicochemical
[4] = pH titration of sodium valproate solutions (5 mL) with 25 mM HCl (FIG. 7)
[5] = solubility of sodium valproate in water; details: early emulsion experiments
[6] = on the order of; cited from earlier work
[7] = 150 mg/mL sodium valproate, 5 mL, 25 mM HCl
[8] = 0.4% sodium citrate (13.6 mM) in 150 mg/mL (0.9 M) sodium valproate

## CCCC(CCC)C(=O)[O-].[Na+] [sodium valproate]
Human subjects; human subjects receiving valproate to the brain
  perception of body temperature: always cold
Human subjects; human subjects, on reaching a therapeutic level
  nausea at therapeutic level: feeling of nauseous which seems to pass over time
[1]
  solubility limits in water, commonly reported: 50 to 100 mg/mL
[2]
  concentration in cerebrospinal fluid over time: drops quickly
[3]; 150 mg/mL sodium valproate in water
  pH of solution: approximately 8.3
[3]; more concentrated solutions (>350 mg/mL)
  pH of solution: above 9
[4]; 10 mM sodium valproate, 5 mL
  volume of 25 mM HCl at which the pH hits the pKa: 0.6 mL
[4]; 10 mM sodium valproate, 5 mL, before acid
  pH at start of titration: 6.6
[4]; 10 mM sodium valproate, 5 mL, 0.6 mL of 25 mM HCl
  pH after 0.6 mL of acid: 4.81
[4]; 10 mM sodium valproate, 5 mL, 0.7 mL of 25 mM HCl
  pH after 0.7 mL of acid: 4.74
[4]; 10 mM sodium valproate, 5 mL, 1 mL of 25 mM HCl added in 0.1 mL increments
  pH after 1 mL of acid: 4.36
[4]; 150 mg/mL sodium valproate
  change in pH on titration: minimal
[4]; [7]
  pH at last point of titration curve: 7.30
  pH at second-to-last point of titration curve: 7.34
[4]; concentrated solutions of sodium valproate
  buffering of concentrated solutions: strongly buffer solutions at pH>8

## CCCC(CCC)C(=O)O [valproic acid]
[5]
  behaviour of emulsified droplets of pure valproic acid (liquid) in water: dissolving into the water

## NCC(CC(=O)O)c1ccc(Cl)cc1 (stereo not shown) [Baclofen]
[6]
  half-life: five

## O=C(O)CC(O)(CC(=O)O)C(=O)O [sodium citrate]
[4]; [8]
  effect of sodium citrate on buffer capacity: does not provide any measurable increase in buffering capacity above pH 7; also recorded: virtually no effect
  effect of sodium citrate on initial pH: nor does it significantly change the initial pH
